≈ marks a conversion by molar mass, not a printed value.
Key:
[1] = Aqueous solubility at pH 7.0; type: physicochemical
[2] = test system: Blumeria graminis f. sp. tritici; experiment: Antifungal activity against Erysiphe graminis f. sp. tritici at […] relative to control; type: functional
[3] = Partition coefficient, log P by chromatographic hydrophobicity method; type: physicochemical; conditions: octanol/water
[4] = Partition coefficient, log P of the compound; type: physicochemical; conditions: octanol/water

Row | SMILES | solubility [1] [µg/mL] | Activity [2] [%] | logP [3] | logP [4]
1 | CCN(CC)c1nc2sc3c(OC)nnnc3c2c2c1CCCC2 | 0.08 (≈ 0.233 µM) | 100 | 5.32 | –
2 | CCOc1nnnc2c1sc1nc(N3CCOCC3)c3c(c12)CCCC3 | – | 100 | – | –
3 | COCCNc1nc2sc3c(OC)nnnc3c2c2c1CCCC2 | 0.14 (≈ 0.405 µM) | 33 | 3.9 | –
4 | CCN(CC)c1nnnc2c1sc1nc(N3CCOCC3)c3c(c12)CCCC3 | – | 0 | – | –
5 | COCCNc1nnnc2c1sc1nc(N3CCOCC3)c3c(c12)CCCC3 | – | 0 | – | –
6 | CCSc1nnnc2c1sc1nc(N3CCOCC3)c3c(c12)CCCC3 | – | 100 | – | –
7 | COc1nnnc2c1sc1nc(O)c3c(c12)CCCC3 | – | 0 | – | –
8 | COc1nnnc2c1sc1nc(OS(=O)(=O)C(F)(F)F)c3c(c12)CCCC3 | – | 40 | – | –
9 | COCCOc1nnnc2c1sc1nc(N(C)CCOC)c3c(c12)CCCC3 | 0.48 (≈ 1.19 µM) | 100 | 4.12 | –
10 | Sc1nnnc2c1sc1nc(N3CCOCC3)c3c(c12)CCCC3 | – | 0 | – | –
11 | Clc1nnnc2c1sc1nc(N3CCOCC3)c3c(c12)CCCC3 | – | 0 | – | –
12 | CCCOc1nc2sc3c(OC)nnnc3c2c2c1CCCC2 | – | 100 | – | –
13 | C1CCc2c(c(N3CCOCC3)nc3sc4c(OC5CCCC5)nnnc4c23)C1 | – | 0 | – | –
14 | C1CCc2c(c(N3CCOCC3)nc3sc4c(N5CCOCC5)nnnc4c23)C1 | – | 0 | – | –
15 | c1ccc(NNc2nnnc3c2sc2nc(N4CCOCC4)c4c(c23)CCCC4)cc1 | – | 0 | – | –
16 | c1ccc(CSc2nnnc3c2sc2nc(N4CCOCC4)c4c(c23)CCCC4)cc1 | – | 0 | – | –

Row | SMILES | solubility [1] [µg/mL] | Activity [2] [%] | logP [3] | logP [4]
17 | CCCOc1nnnc2c1sc1nc(N3CCOCC3)c3c(c12)CCCC3 | – | 94 | – | –
18 | CC(Cc1ccc(C(C)(C)C)cc1)CN1C[C@@H](C)O[C@@H](C)C1 (stereo partly specified) [FENPROPIMORPH] | – | 97 | – | –
19 | CCCCNc1nnnc2c1sc1nc(N3CCOCC3)c3c(c12)CCCC3 | – | 0 | – | –
20 | CCCCN(C)c1nc2sc3c(OC)nnnc3c2c2c1CCCC2 | – | 83 | – | –
21 | NNc1nnnc2c1sc1nc(N3CCOCC3)c3c(c12)CCCC3 | – | 0 | – | –
22 | COc1nnnc2c1sc1nc(N3CCOCC3)c3c(c12)CCCC3 | 0.08 (≈ 0.224 µM) | 100 | 4.06 | 4.25
23 | CC(C)Oc1nnnc2c1sc1nc(N3CCOCC3)c3c(c12)CCCC3 | – | 0 | – | –
24 | COc1nnnc2c1sc1nc(N3CCCC3)c3c(c12)CCCC3 | – | 92 | – | –
25 | c1coc(COc2nnnc3c2sc2nc(N4CCOCC4)c4c(c23)CCCC4)c1 | – | 0 | – | –
26 | COc1nnnc2c1sc1nc(N(C)Cc3ccccc3)c3c(c12)CCCC3 | – | 100 | – | –
27 | CC(C)CCOc1nnnc2c1sc1nc(N3CCOCC3)c3c(c12)CCCC3 | – | 0 | – | –
28 | COCCN(CCOC)c1nc2sc3c(OC)nnnc3c2c2c1CCCC2 | 0.79 (≈ 1.96 µM) | 67 | 4.09 | –
29 | CSc1nnnc2c1sc1nc(N3CCOCC3)c3c(c12)CCCC3 | – | 100 | – | –
30 | COCCOc1nnnc2c1sc1nc(N3CCOCC3)c3c(c12)CCCC3 | 0.21 (≈ 0.523 µM) | 100 | 3.82 | –
31 | COCCN(C)c1nc2sc3c(OC)nnnc3c2c2c1CCCC2 | 0.32 (≈ 0.89 µM) | 100 | 4.31 | –
